Consider twelve compounds from patent US5648378A, “2-iminochromene derivatives as inhibitors of protein tyrosine kinase” (Research Corporation Technologies, Inc., priority 1995, dated 1997).

In brackets after ≈: the same amount, converted by molar mass.

For one experiment, the system named is HL-60 cells. Put plainly: cell growth inhibition, HL-60 promyelocytic leukemia. The class given is cell-based. The settings on record: Homo sapiens, HL-60, 72 h; 3 days, Trypan Blue viable cell count. As for the experimental part:
(§1) The source of the cancer cell lines were: HL-60, HT-29, and BT-20, from American Type Culture Collection, Rockville, Maryland; A-1 from Dr. M. H. Freedman, MG-63, from Dr. M. Hurley, and human fibroblast from Dr. R. Zeff. Cells were grown in the culture treated with or without various compounds for 3 days. Cells (except BT-20) were then recovered and treated with Trypan Blue and the number of viable cells counted. For BT-20 cells, a new rapid and simple method using Alamar Blue Assay was used, as described by S. A. Ahmed et al., J. Immunol. Meth., 170, 211 (1994). The symbol i on the Table indicates "not
(§2) As shown on Table 3, several compounds of formula (I) were tested for their ability to inhibit the growth of human cancer cells including promyelocytic leukemia HL-60 cells (S. J. Collins et al., Blood, 70, 1233 (1987)); acute lymphocytic leukemia A-1 cells, (S. Kamel-Reid et al., Leukemia, 6, 8 (1992)); human osteosarcoma MG-63, (A. Pirskanen et al., J. Bone and Mineral Res., 1635 (1994)); human breast carcinoma BT-20 (G. G. Castles et al., Cancer Res., 58, 5934 (1992)); and human colon adenocarcinoma HT-29 cells (R. Garcia et al., Oncogene, 6, 1983 (1991)).

For another experiment, the target named is T1, p60^c-src (Homo sapiens, UniProt P12931).
T1 construct: purchased Upstate Biotechnology Inc
T1 sequence (P12931 whole entry): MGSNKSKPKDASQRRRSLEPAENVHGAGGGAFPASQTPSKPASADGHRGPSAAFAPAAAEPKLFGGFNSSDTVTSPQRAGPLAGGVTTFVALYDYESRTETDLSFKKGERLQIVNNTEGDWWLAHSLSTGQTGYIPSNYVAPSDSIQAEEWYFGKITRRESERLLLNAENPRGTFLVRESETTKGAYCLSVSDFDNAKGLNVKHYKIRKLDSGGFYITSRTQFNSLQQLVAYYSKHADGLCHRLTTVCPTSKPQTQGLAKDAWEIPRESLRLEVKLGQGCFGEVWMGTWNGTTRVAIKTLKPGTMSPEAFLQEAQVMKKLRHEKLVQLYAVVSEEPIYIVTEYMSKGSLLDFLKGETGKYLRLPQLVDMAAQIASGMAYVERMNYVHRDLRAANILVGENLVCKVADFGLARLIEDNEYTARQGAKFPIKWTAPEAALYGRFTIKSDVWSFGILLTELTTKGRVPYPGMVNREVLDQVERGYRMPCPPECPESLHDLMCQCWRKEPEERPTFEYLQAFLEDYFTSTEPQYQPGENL
The experiment can be described thus: kinase assay, purified p60c-src, poly [Glu,Tyr](4:1) substrate. The format is biochemical. The settings on record: for IC50, p60^c-src: purified kinase, poly [Glu,Tyr](4:1) substrate; for potency relative to the hydroxylated parent compound (in words): hydroxymethyl versus hydroxy N-phenyl analogue. The method, then: (§3) Purified p60^c-scr and Src-family kinases p56^lck, p56^lyn, and p55^fyn were obtained from Upstate Biotechnology Inc. Kinase assays were performed as described by A. Gezit, J. Med.

In the next experiment the test system is BT-20. Put plainly: cell growth inhibition, BT-20 breast carcinoma (Alamar Blue). The class given is cell-based. The settings on record: Homo sapiens, BT-20, 72 h, 3 days, Alamar Blue Assay. As for the experimental part: as §1, §2
For another experiment, the target named is T2, p56^lyn (Homo sapiens, UniProt P07948).
T2 construct: purchased Upstate Biotechnology Inc
T2 sequence (P07948 whole entry, species assumed): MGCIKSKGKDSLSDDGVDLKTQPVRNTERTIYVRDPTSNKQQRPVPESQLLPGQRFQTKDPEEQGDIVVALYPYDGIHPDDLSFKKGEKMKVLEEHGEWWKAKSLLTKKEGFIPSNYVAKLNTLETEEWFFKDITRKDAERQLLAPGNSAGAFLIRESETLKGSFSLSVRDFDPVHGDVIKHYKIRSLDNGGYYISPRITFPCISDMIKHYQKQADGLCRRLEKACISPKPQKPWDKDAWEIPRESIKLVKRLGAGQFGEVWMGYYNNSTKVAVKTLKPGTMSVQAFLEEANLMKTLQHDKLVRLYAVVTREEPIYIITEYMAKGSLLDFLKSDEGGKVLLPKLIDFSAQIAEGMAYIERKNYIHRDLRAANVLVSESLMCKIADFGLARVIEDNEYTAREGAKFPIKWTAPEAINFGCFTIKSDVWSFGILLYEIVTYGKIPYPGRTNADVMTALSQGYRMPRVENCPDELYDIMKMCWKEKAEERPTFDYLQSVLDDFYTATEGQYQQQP
Put plainly: kinase assay, p56lyn. The class given is biochemical. The settings on record: poly [Glu,Tyr](4:1) substrate. As for the experimental part: as §3

For another experiment, the system named is HT-29 cells. The experiment can be described thus: cell growth inhibition, HT-29 colon adenocarcinoma. The class given is cell-based. The settings on record: Homo sapiens, HT-29, 72 h; 3 days, Trypan Blue viable cell count. The method, then: as §1, §2
The test system of a further experiment is A-1 cells. The experiment can be described thus: cell growth inhibition, A-1 acute lymphocytic leukemia. The format is cell-based. The settings on record: Homo sapiens, 72 h; 3 days, Trypan Blue viable cell count. As for the experimental part:
as §1

A further experiment deals with MG-63. The experiment can be described thus: cell growth inhibition, MG-63 osteosarcoma. The class given is cell-based. The settings on record: Homo sapiens, MG-63, 72 h; 3 days, Trypan Blue viable cell count. The method, then:
as §1, §2

In another experiment the target is T3, p56^lck (Homo sapiens, UniProt P06239).
T3 construct: purchased Upstate Biotechnology Inc
T3 sequence (P06239 whole entry, species assumed): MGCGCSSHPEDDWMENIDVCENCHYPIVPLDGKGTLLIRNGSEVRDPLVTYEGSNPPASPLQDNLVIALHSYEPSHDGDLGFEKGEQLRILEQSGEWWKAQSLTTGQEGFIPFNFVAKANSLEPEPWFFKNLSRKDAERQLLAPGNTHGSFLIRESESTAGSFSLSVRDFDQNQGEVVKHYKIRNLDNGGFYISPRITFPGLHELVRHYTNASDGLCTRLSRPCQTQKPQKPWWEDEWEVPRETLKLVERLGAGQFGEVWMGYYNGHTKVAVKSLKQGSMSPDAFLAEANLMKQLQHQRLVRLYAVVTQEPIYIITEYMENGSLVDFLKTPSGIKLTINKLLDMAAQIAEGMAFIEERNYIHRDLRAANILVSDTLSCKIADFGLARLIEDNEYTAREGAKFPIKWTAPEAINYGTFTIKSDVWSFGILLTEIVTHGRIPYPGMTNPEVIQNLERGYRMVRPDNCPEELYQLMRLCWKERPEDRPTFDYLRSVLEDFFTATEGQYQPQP
Put plainly: kinase assay, p56lck. The settings on record: poly [Glu,Tyr](4:1) substrate. The class given is biochemical. The method, then:
as §3

A further experiment deals with Human fibroblasts cells. The experiment can be described thus: cell growth inhibition, human fibroblasts. The format is cell-based. The settings on record: for IC50: Homo sapiens, Fibroblast, 72 h, 3 days, Trypan Blue viable cell count. The method, then:
as §1

The target of a further experiment is p55^fyn. Put plainly: kinase assay, p55fyn. The format is biochemical. The settings on record: poly [Glu,Tyr](4:1) substrate. The method, then: as §3

Consider `COc1ccc2cc(C(=O)Nc3ccc(O)cc3)c(=N)oc2c1` [Compound 15T], for which the IC50 in the experiment on HL-60 cells is 7.5 µg/mL (≈ 24.2 µM); with BT-20, above 20 µg/mL. Besides, the “fold less active than 8T” value on p60^c-src (p60^c-src, versus 8T) worked out at 8 fold.

For `N=c1oc2cc(O)cc(O)c2cc1C(=O)Nc1cccc(O)c1` [Compound 19TA], the “IC50, p56^lyn” value at p56^lyn came out at 5 µg/mL (≈ 16 µM). Moreover, the concentration for half-maximal inhibition (IC50) was 2.5 µg/mL (≈ 8.01 µM) in the experiment on HL-60 cells; 10 µg/mL (≈ 32 µM) in the experiment with HT-29 cells; 15 µg/mL (≈ 48 µM) in the experiment with A-1 cells; above 20 µg/mL in the experiment with BT-20; 5 µg/mL (≈ 16 µM) in the experiment with MG-63; above 20 µg/mL in the experiment on Human fibroblasts cells. The “IC50, p60^c-src” value against p60^c-src is 1.25 µg/mL (≈ 4 µM). Moreover, on p56^lck, the “IC50, p56^lck” value came to 3.75 µg/mL (≈ 12 µM). Further, the “inhibition of growth of human fibroblast cells (in words)” value in the experiment on Human fibroblasts cells is listed as “not effective”.

For `CC(=O)c1cccc(NC(=O)c2cc3ccc(O)c(O)c3oc2=N)c1` [Compound 18ACTA], the “IC50, p56^lyn” value on p56^lyn amounted to 10 µg/mL (≈ 29.6 µM). Also, inhibition in the experiment on A-1 cells was half-maximal at 15 µg/mL (≈ 44.3 µM) (IC50). Moreover, at p60^c-src, the “IC50, p60^c-src” value was 3 µg/mL (≈ 8.87 µM).

`COc1cccc2cc(C(=O)Nc3cccc(O)c3)c(=N)oc12` [Compound 32TA] showed a 50% inhibitory concentration (IC50) in the experiment with A-1 cells of 12 µg/mL (≈ 38.7 µM). Further, on p60^c-src, the “IC50, p60^c-src” value came out at 1.3 µg/mL (≈ 4.19 µM).

For `N=c1oc2c(O)c(O)ccc2cc1C(=O)Nc1ccccc1CO` [Compound 18TOBA], the results for the 50% inhibitory concentration (IC50) in the experiment with HL-60 cells and in the experiment on A-1 cells were 6 µg/mL (≈ 18.4 µM) and above 20 µg/mL, respectively. Besides, the “potency relative to the hydroxylated parent compound (in words)” value at p60^c-src (p60^c-src) is recorded as “much more potent”. Also, at p60^c-src, the “IC50, p60^c-src” value came to 0.9 µg/mL (≈ 2.76 µM). For the same compound, on p55^fyn, the “IC50, p55^fyn” value is above 20 µg/mL. Further, at p56^lck, the “IC50, p56^lck” value turned out to be 5 µg/mL (≈ 15.3 µM).

With `N=c1oc2cc(O)cc(O)c2cc1C(=O)Nc1ccc(O)cc1` [Compound 19T], the “IC50, p56^lyn” value against p56^lyn turned out to be 5 µg/mL (≈ 16 µM). Further, the IC50 in the experiment on HL-60 cells was 1 µg/mL (≈ 3.2 µM); with HT-29 cells, 2.5 µg/mL (≈ 8.01 µM); in the experiment on A-1 cells, 1 µg/mL (≈ 3.2 µM); in the experiment on Human fibroblasts cells, above 20 µg/mL. Further, the “fold more potent than the parent compound 25T” value at p60^c-src (p60^c-src, versus 25T) was 200 fold. Further, the “IC50, p60^c-src” value at p60^c-src stood at 0.2 µg/mL (≈ 0.64 µM). Besides, the “IC50, p56^lck” value against p56^lck came out at 2 µg/mL (≈ 6.4 µM). Moreover, in the experiment with Human fibroblasts cells, the “inhibition of growth of human fibroblast cells (in words)” value is reported as “not effective”.

With `N=c1oc2c(O)cccc2cc1C(=O)Nc1ccccc1CO` [Compound 9TOBA], the figures for the 50% inhibitory concentration (IC50) in the experiment on HL-60 cells and in the experiment on MG-63 were 6 µg/mL (≈ 19.3 µM) and 5 µg/mL (≈ 16.1 µM), respectively. In addition, at p60^c-src (p60^c-src), the “potency relative to the hydroxylated parent compound (in words)” value was “much more potent”. Besides, on p60^c-src, the “IC50, p60^c-src” value was determined as 1.8 µg/mL (≈ 5.8 µM).

On to `N=c1oc2c(O)cccc2cc1C(=O)Nc1cccc(CO)c1` [Compound 9TABA], for which the results for the concentration for half-maximal inhibition (IC50) in the experiment on A-1 cells, with MG-63 and against p56^lck were 11 µg/mL (≈ 35.4 µM), above 20 µg/mL and 64.5 µM, respectively. Besides, on p60^c-src (p60^c-src), the “potency relative to the hydroxylated parent compound (in words)” value was “not more potent”. Moreover, the “IC50, p60^c-src” value against p60^c-src came to 2.5 µg/mL (≈ 8.06 µM). Also, the “IC50, p55^fyn” value on p55^fyn turned out to be 3 µg/mL (≈ 9.67 µM).

For the compound `N=c1oc2ccc(O)cc2cc1C(=O)Nc1cccc(O)c1` [Compound 7TA], the half-maximal inhibitory concentration (IC50) against p56^lyn was above 33.8 µM; in the experiment on HL-60 cells, 6.5 µg/mL (≈ 21.9 µM); in the experiment with A-1 cells it was 4.5 µg/mL (≈ 15.2 µM). On p60^c-src, the “IC50, p60^c-src” value worked out at 1.3 µg/mL (≈ 4.39 µM).

`N=c1oc2c(O)c(O)ccc2cc1C(=O)Nc1cccc(CO)c1` [Compound 18TABA]: the “IC50, p56^lyn” value on p56^lyn was found to be 20 µg/mL (≈ 61.3 µM). In addition, the 50% inhibitory concentration (IC50) with HL-60 cells and in the experiment on A-1 cells was 2.5 µg/mL (≈ 7.66 µM) each time. Besides, on p60^c-src (p60^c-src), the “potency relative to the hydroxylated parent compound (in words)” value was “not more potent”. Further, the “IC50, p60^c-src” value against p60^c-src came to 5 µg/mL (≈ 15.3 µM). In addition, the “IC50, p55^fyn” value on p55^fyn was above 20 µg/mL.

Turning to `N=c1oc2ccc(O)cc2cc1C(=O)Nc1ccc(O)cc1` [Compound 7T], the half-maximal inhibitory concentration (IC50) was 4.2 µg/mL (≈ 14.2 µM) in the experiment with HL-60 cells, 3 µg/mL (≈ 10.1 µM) in the experiment with A-1 cells and 4.5 µg/mL (≈ 15.2 µM) in the experiment with BT-20. In addition, on p60^c-src, the “IC50, p60^c-src” value came to 3.2 µg/mL (≈ 10.8 µM).

Consider `N=c1oc2cc(O)ccc2cc1C(=O)Nc1ccc(O)cc1` [Compound 8T], for which the IC50 in the experiment on HL-60 cells worked out at 5 µg/mL (≈ 16.9 µM); in the experiment on A-1 cells it was 5 µg/mL (≈ 16.9 µM); in the experiment with BT-20 it was 14 µg/mL (≈ 47.3 µM). Further, on p60^c-src, the “IC50, p60^c-src” value came to 1.2 µg/mL (≈ 4.05 µM).

One may read the IC50 as the concentration at which inhibition is half-maximal. High values mean weaker potency in that assay, low ones greater potency in that assay.
